System: Cochliobolus miyabeanus
Experiment: Activity against brown spot of rice caused by Cochliobolus miyabeanus, protective application
Type: in vivo
Conditions: individual active compound, evaluated after 6 days
Method: The active compounds, separately or jointly, were prepared as a stock solution comprising 0.25% by weight of active compound in acetone or DMSO. 1% by weight of the emulsifier Uniperol® EL (wetting agent having emulsifying and dispersing action based on ethoxylated alkylphenols) was added to this solution, and the mixture was appropriately diluted with water to the desired concentration.
Use example—Activity against brown spot of rice caused by Cochliobolus miyabeanus, protective application Leaves of rice seedlings of the cultivar “Tai-Nong 67” which had been grown in pots were sprayed to runoff point with an aqueous suspension having the concentration of active compound stated below. The next day, the plants were inoculated with an aqueous spore suspension of Cochliobolus miyabeanus. The test plants were then placed in climatized chambers at 22-24° C. and 95-99% relative atmospheric humidity for 6 days. The extent of the development of infection on the leaves was then determined visually.
The visually determined values for the percentage of infected leaf area were converted into efficacies as a % of the untreated control:
The efficacy (E) is calculated as follows using Abbot's formula: E=(1−α/β)·100 α corresponds to the fungal infection of the treated plants in % and β corresponds to the fungal infection of the untreated (control) plants in % An efficacy of 0 means that the infection level of the treated plants corresponds to that of the untreated control plants; an efficacy of 100 means that the treated plants are not infected.
The expected efficacies of the mixtures of active compounds were determined using Colby's formula [R. S. Colby, “Calculating synergistic and antagonistic responses of herbicide combinations”, Weeds, 15, 20-22 (1967)] and are compared with the observed efficacies.
Colby's formula: E=x+y−x·y/100
E expected efficacy, expressed in % of the untreated control, when using the mixture of the active compounds A and B at the concentrations a and b x efficacy, expressed in % of the untreated control, when using active compound A at the concentration a y efficacy, expressed in % of the untreated control, when using active compound B at the concentration b

Row | SMILES | Efficacy in % of the untreated control (3.1 ppm in the spray liquor) [%] | Efficacy in % of the untreated control (6.25 ppm in the spray liquor) [%] | Efficacy in % of the untreated control (12.4 ppm in the spray liquor) [%]
1 | CC1CCN(c2c(-c3c(F)cc(F)cc3F)c(Cl)nc3ncnn23)CC1 [I, 5-chloro-7-(4-methylpiperidin-1-yl)-6-(2,4,6-trifluorophenyl)[1,2,4]tri-azolo[1,5-a]pyrimidine] | 22 | 56 | –
2 | CC12CC1(C)C(=O)N(c1cc(Cl)cc(Cl)c1)C2=O (stereo not shown) [II (procymidone), 3-(3,5-dichlorophenyl)-1,5-dimethyl-3-aza-bicyclo[3.1.0]hexane-2,4-dione] | – | 22 | 44
